System: PC3 prostate cancer viability, PrestoBlue fluorescence
Experiment: antiproliferative effect, PC3 prostate cancer line – cell-based, mTOR inhibitor project, dose response (AID 1224902)

`CCOC(Cn1nc(-c2ccc3oc(N)nc3c2)c2c(N)ncnc21)OCC` gave an EC50 of 37 nM.
